Measured values as given in patent US20070172957A1, “Methods of identifying anti-inflammatory macrolides” (TAISHO PHARMACEUTICAL CO., LTD., priority 2004, published 2007).

Tested on: A549 cells
Test: A549 microarray comparing macrolides with arachidonic acid pathway inhibitors, with IL-1β stimulation (Appendix C, Tables 6-9), and correlation analysis
Format: cell-based
Conditions: for Total # Differential Genes (95% confidence): A549, threshold 1.3; for FADS1 expression: A549 cells, microarray
Source text: One inhibitor, triacsin C, acts on AA biosynthesis by inhibiting arachidonyl CoA synthetases, blocking the incorporation of free AA into phospholipids. Triacsin C is reasonably specific for AA compared to other fatty acids. However, triacsin C structurally resembles AA so it also may interfere with other steps in the AA pathway. Indomethacin is an inhibitor of COX1 and COX2 enzyme activities and therefore specifically blocks metabolism of AA into prostaglandins. […] It inhibits transcription of PLA2, and transcriptionally and post-transcriptionally regulates COX1 and COX2 activities. Dexamethasone has additional effects unrelated to AA through binding with the glucocorticoid receptor to glucocortcoid response elements.
A549 cells were pre-incubated overnight (17 hours) with macrolides (10 μM FMA-9045, 50 μM clarithromycin, 50 μM roxithromycin, 50 μM josamycin) and 15 μM triacsin C, and pre-incubated 2 hours with 100 nM indomethacin and 100 nM dexamethasone. All cells then were stimulated for 4 hours with IL-1β, because the activation of PLA2 and downstream signaling events generally requires an inflammatory stimulus. The various treatment conditions are shown below in Table 4. Following macrolide and inhibitor pre-treatment and IL-1 stimulation, the cells were lysed, total RNA was collected, and the poly-A+ mRNA fraction was purified. The resulting microarray data (Appendix C) were analyzed using the methods described in the Examples above.
The tables in Appendix C represent the effects of the arachidonic acid pathway inhibitors (“AA pathway inhibitors”) and the effects of the macrolides (“IL1+macrolide effects”). […] In both tables in Appendix C, the genes that meet this criterion (≧1.3 min fold change) are indicated in bold.
Quantitative analysis was done to determine how well the responses to the different AA pathway inhibitors correlated. The correlation values were assigned a p-value to provide statistical confidence to the correlation value. Correlation between experiments, across all spots showing good detection, was assessed by cosine vector angle to generate the data shown in Tables 7-9. A correlation coefficient close to one indicates strong correlation, whereas a value near zero indicates no correlation. P-values for each correlation coefficient were estimated based on a Fisher permutation test. In this test, each spot's expression ratios were randomly re-ordered across experiments and the degree of correlation between experiments was then reassessed. This was done repeatedly.

[1] = IL1 vs IL1 + drug, macrolides 50 μM (FMA 10 μM), triacsin C 15 μM, indomethacin and dexamethasone 100 nM
[2] = IL1 + Triacsin vs IL1 + Triacsin + macrolide 50 μM
[3] = A549 + IL-1β, of the genes regulated by the labelled drug

CO[C@@H]1[C@@H](O[C@@H]2O[C@H](C)[C@@H](O[C@H]3C[C@@](C)(O)[C@@H](OC(=O)CC(C)C)[C@H](C)O3)[C@H](N(C)C)[C@H]2O)[C@@H](CC=O)C[C@@H](C)[C@@H](O)/C=C/C=C/C[C@@H](C)OC(=O)C[C@H]1OC(C)=O [josamycin]
Total # Differential Genes (95% confidence) [1]: 73

CC[C@H]1OC(=O)[C@H](C)[C@@H](O[C@H]2C[C@@](C)(OC)[C@@H](O)[C@H](C)O2)[C@H](C)[C@@H](O[C@@H]2O[C@H](C)C[C@H](N(C)C)[C@H]2O)[C@](C)(O)C[C@@H](C)/C(=N\OCOCCOC)[C@H](C)[C@@H](O)[C@]1(C)O [roxithromycin]
Total # Differential Genes (95% confidence) [2]: 7 | Total # Differential Genes (95% confidence) [1]: 65 | FADS1 expression: differentially expressed

CC[C@H]1OC(=O)[C@H](C)[C@@H](O[C@H]2C[C@@](C)(OC)[C@@H](O)[C@H](C)O2)[C@H](C)[C@@H](O[C@@H]2O[C@H](C)C[C@H](N(C)C)[C@H]2O)[C@](C)(OC)C[C@@H](C)C(=O)[C@H](C)[C@@H](O)[C@]1(C)O [clarithromycin]
Number of differentially expressed genes also differential in response to indomethacin [3]: 25 | Number of differentially expressed genes also differential in response to triacsin C [3]: Forty-two | Total # Differential Genes (95% confidence) [2]: 4 | Total # Differential Genes (95% confidence) [1]: 54 | FADS1 expression: differentially expressed
